These results are taken from US20130211079A1, “SUBSTITUTED HETEROCYCLES AS THERAPEUTIC AGENTS FOR TREATING CANCER” (priority 2010, published 2013).

For one data set, the target named is Hdm2 (Homo sapiens, UniProt Q00987). The note with it: KD; method for each compound in column 'Method of KD calculation' (bin. titr., AIDA, FP, SPR).
The next data set can be described thus: Aqueous solubility. It is filed as physicochemical. The note with it: PB11 compared with PB2. From the text: The present inventor rationalized, therefore, that derivatization of an inventive compound to a more hydrophilic drugable molecule, for instance via amidation of a carboxylic acid group or the amidation of an ester group could potentially improve water solubility, binding affinity and bioavailability. See below for synthetic methodology.

The next data set addresses T1, p53-hMDM2 complex (Homo sapiens, UniProt Q00987).
T1 construct: complex of p53 (res. 1-321)+Hdm2 (res. 1-125)
The data set can be described thus: 1D AIDA-NMR antagonist-induced dissociation assay. It is filed as binding. The following applies: p53 (res. 1-321) + Hdm2 (res. 1-125); FIG. 3.

Hdm2, sequence (Q00987 1-125): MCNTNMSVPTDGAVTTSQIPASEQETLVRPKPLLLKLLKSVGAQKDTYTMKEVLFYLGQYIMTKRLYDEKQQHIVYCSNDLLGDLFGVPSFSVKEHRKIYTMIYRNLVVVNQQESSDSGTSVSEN
T1 sequence (Q00987 1-125, one chain of several): as the sequence (Q00987 1-125) above
Experimental for Hdm2: The affinities of imidazoline compounds of the present invention towards MDM2 or MDM4 proteins was measured by 2D H^1—N^15 HSQC NMR spectroscopy.
Water suppression was carried out using the WATERGATE sequence. NMR spectra were acquired at 300 K on a Bruker DRX 600 MHz spectrometer equipped with a cryoprobe and the data was processed using the Bruker program Xwin-NMR V. 3.5.
NMR ligand binding experiments were carried out in an analogous way to those previously described. […] For instance, 500 μL of the protein sample, at a concentration of about 0.1 mM, in 10% D2O and a 20 mM stock solution of nutin-3 (purchased from Cayman Chemical, MI) in DMSO-d6 were used in all experiments. […]
For example, 500 μL of the protein sample, at a concentration of about 0.1 mM, in 10% D2O and a 20 mM stock solution of nutin-3 (purchased from Cayman Chemical, MI) in DMSO-d6 were used in all of the experiments. […] The ^1H—^15N—HSQC spectra were recorded using fast HSQC pulse sequence as described by Mori et al., J. Magn. […]
The fluorescence intensities parallel (Intparallel) and perpendicular (Intperpedicular) to the plane of excitation were measured in black 384-well NBS assay plates (Corning) at room temperature (˜20° C.). […]
All fluorescence polarization values were expressed in millipolarization units (mP). […] Plates were read at 30 min after mixing all assay components. […]

`Oc1ccc2ccc(Br)cc2c1C(NCC1CC1)c1ccc(Cl)cc1` (stereo not shown) [PB13, 7-Bromo-1-[(4-chlorophenyl)(cyclopropylmethylamino)methyl]naphthalen-2-ol]: the “Binding to Hdm2” value at Hdm2 is recorded as “precipitation”.

Regarding `O=C1C(c2ccc(Cl)cc2)C(c2cc3ccc(Cl)cc3[nH]2)N1c1ccc(Cl)cc1` (stereo not shown) [PB15, 4-(6-Chloro-1H-indol-2-yl)-1,3-bis-(4-chlorophenyl)azetidin-2-one], the “Binding to Hdm2” value on Hdm2 is on record as “precipitation”.

As to `CC(C)C[C@@]1(C(=O)NCCc2ccncc2)N=CN(CC2CC2)C1c1ccc(Cl)cc1` (mixture of isomers) [PB11, cis-5-(4-chlorophenyl)-1-(cyclopropylmethyl)-4-isobutyl-N-(2-(pyridin-4-yl)ethyl)-4,5-dihydro-1H-imidazole-4-carboxamide], the water solubility result in “Aqueous solubility” is “improved”. The “disruption of p53-hMDM2 complex (reappearance of Trp23 peak of p53)” value at p53-hMDM2 complex was “dissociation of the p53-hMDM2 complex”.
